Source: patent EP0163537A1, “1-Propanone derivatives and pharmaceutical compositions containing same” (priority 1984, dated 1985)
Structures can show the parent of a compound that is named as a salt. Where two headings read alike, the source gives them in different places.

Columns and labels:
Format in all cases: in vivo
[1] = test system: Male mice of ddY strain; test: Test 1 Anti-nicotine activity (inhibition of nicotine-induced convulsive death); conditions: 200 mg/kg po, nicotine 2 mg/kg iv after 1 h, observed 1 h; for responders at 200 mg/kg: Mus musculus
Experimental: Male mice of ddY strain, weighing 28 to 33 g, were used in groups of eight or twelve. The test compounds were dissolved in distilled water and administered orally in a dose of 200 mg/kg. After an hour, nicotine was intravenously administered in a dose of 2 mg/kg.

[2] = test system: Male mice of ddY strain; test: Test 2 Anti-tremorine activity (inhibition of tremorine-induced tremor); conditions: for responders at 50 mg/kg: Mus musculus, po, read-out: Inhibition of tremor (%)
Experimental: Male mice of ddY strain, weighing 28 to 32 g, were used in groups of eight or ten. The test compounds were dissolved in distilled water and administered orally in a dose of 50 mg/kg. After 30 minutes, tremorine dihydrochloride was subcutaneously administered in a dose of 20 mg/kg. Then, the occurrence of tremor was observed after the lapse of 30 and 60 minutes.

[3] = test system: Male mice of ddY strain; test: Test 3 Muscle relaxant activity (traction test, method of Courvoisier et al.); conditions: 15 minutes after administration, groups of ten
Experimental: Male mice of ddY strain, weighing 30 to 37 g, were used in groups of ten. The test compounds were dissolved in physiological saline and administered intraperitoneally in a dose of 50 or 75 mg/kg. […] This method involves a traction test in which the animal is hung by its forelimbs on a horizontal metal rod (2 mm in diameter) placed 20 cm above the floor and examined as to whether it can put its hindlimb on the rod or not.
Specifically, 15 minutes after administration of a test compound, the mouse was hung on the rod by its forelimbs. […] It had been confirmed in preliminary tests that, under normal conditions, all the mice could put their hindlimb on the rod within 5 seconds.

[4] = test system: Male rats of Wistar strain; test: Test 4 Effect on decerebrate rigidity induced by transection between superior and inferior colliculi
Experimental: Male rats of Wistar strain, weighing 300 to 400 g, were used. The test compounds were dissolved in physiological saline and administered intravenously in doses of 10 mg/kg and 20 mg/kg.
Rigidity preparations were made according to the method of Fukuda et al. [The Japanese Journal of Pharmacology, 22, 457 (1972)]. Specifically, after a rat was fixed in a prone position under ether anesthesia, an incision was made in the head. The skull was removed around the occipital region to expose the brain. […] More than 2 hours after operation, the rat was mounted in a supine position on a fixing stand. Thus, the effect of the test compounds was evaluated by using the occurrence of rigidity in the antigravity muscles of the limbs as an index.

[5] = test system: Male mice of ddY strain; test: Test 5 Acute toxicity (LD50, method of Behrens and Kärbar); conditions: Table-5a, observed for 7 days
Experimental: (§1) Male mice of ddY strain, weighing 25 to 30 g, were used in groups of five. The test compounds were dissolved in distilled water and administered orally in various doses. […] Then, the LDso was calculated according to the method of Behrens and Kärbar.

[6] = as above; conditions: mouse, in vivo, mice, observed for 7 days
Experimental: as §1

[7] = Table-3a, 50 mg/kg po, After 30 min. from tremorine 20 mg/kg sc, 8 animals used
[8] = Table-3a, 50 mg/kg po, After 60 min. from tremorine 20 mg/kg sc, 8 animals used
[9] = Table-3d, 50 mg/kg po, After 30 min., 10 animals used
[10] = Table-3d, 50 mg/kg po, After 60 min., 10 animals used
[11] = po, 1 h, Table-2c, 12 animals used
[12] = 0.5 h, Table-3d, 50 mg/kg po, After 30 min., 10 animals used
[13] = 1 h, Table-3d, 50 mg/kg po, After 60 min., 10 animals used

1-(4-Cyclopropylphenyl)-2-methyl-3-piperidino-1-propanone hydrochloride [Example 1]
Inhibition of death (%) ([1]; Table-2a, 8 animals used): 100.0%
Number of surviving animals ([1]; Table-2a, 8 animals used): 8
Inhibition of tremor (%) [2, 7]: 100%
Number of animals exhibiting no tremor [2, 7]: 8
Inhibition of tremor (%) [2, 8]: 87.5%
Number of animals exhibiting no tremor [2, 8]: 7
Muscle relaxation rate (%) ([3]; Table-4a, 50 mg/kg ip): 60%
Number of animals exhibiting muscle relaxation ([3]; Table-4a, 50 mg/kg ip): 6
rigidity of the forelimbs and hindlimbs ([4]; 10 mg/kg intravenously): relaxed the rigidity of the forelimbs and hindlimbs to a significant degree
Acute toxicity LD50 (mg/kg,po) [5]: 535 mg/kg

CCCC(CN1CCCCC1)C(=O)c1ccc2c(c1)OCO2 (stereo not shown) [Example 66, 1-(3,4-Methylenedioxyphenyl)-2-n-propyl-3-piperi-dino-1-propanone hydrochloride]
responders at 200 mg/kg ([1]; Table-2b, 12 animals used): 58.3%
Number of surviving animals ([1]; Table-2b, 12 animals used): 7
rigidity of the forelimbs and hindlimbs ([4]; 20 mg/kg intravenously): relaxed the rigidity similarly
LD50 at 168 h ([6]; Table-5b, oral): 625 mg/kg

CC(CN1CCCC1)C(=O)c1ccc2c(c1)CCO2.Cl (stereo not shown) [Example 92, 1-(2,3-Dihydro-5-benzofuranyl)-2-methyl-3-(1-pyrrolidinyl)-1-propanone hydrochloride]
responders at 200 mg/kg ([1]; Table-2c, 12 animals used): 75%
Number of surviving animals ([1]; Table-2c, 12 animals used): 9
responders at 50 mg/kg ([2]; 0.5 h): 100%
responders at 50 mg/kg ([2]; 1 h): 100%
Number of animals exhibiting no tremor [2, 9]: 10
Number of animals exhibiting no tremor [2, 10]: 10
Number of animals exhibiting muscle relaxation ([3]; Table-4d, 75 mg/kg ip): 6
rigidity of the forelimbs and hindlimbs ([4]; 20 mg/kg intravenously): relaxed the rigidity similarly
LD50 at 168 h ([6]; Table-5c, oral): 685 mg/kg

CC(CN1CCCCC1)C(=O)c1ccc2c(c1)CCO2.Cl (stereo not shown) [Example 85, 1-(2,3-Dihydro-5-benzofuranyl)-2-methyl-3-piperidino-1-propanone hydrochloride]
responders at 200 mg/kg [1, 11]: 66.7%
Number of surviving animals ([1]; Table-2c, 12 animals used): 8
responders at 50 mg/kg [2, 12]: 100%
responders at 50 mg/kg [2, 13]: 100%
Number of animals exhibiting no tremor [2, 9]: 10
Number of animals exhibiting no tremor [2, 10]: 10
Number of animals exhibiting muscle relaxation ([3]; Table-4d, 75 mg/kg ip): 8
rigidity of the forelimbs and hindlimbs ([4]; 20 mg/kg intravenously): relaxed the rigidity similarly
LD50 at 168 h ([6]; po, Table-5c): 625 mg/kg

CC(CN1CCCCC1)C(=O)c1ccc2c(c1)OCO2.Cl (stereo not shown) [Example 57, 2-Methyl-1-(3,4-methylenedioxyphenyl)-3-piperidino-1-propanone hydrochloride]
responders at 200 mg/kg ([1]; Table-2b, 12 animals used): 41.7%
Number of surviving animals ([1]; Table-2b, 12 animals used): 5
rigidity of the forelimbs and hindlimbs ([4]; 20 mg/kg intravenously): relaxed the rigidity similarly
LD50 at 168 h ([6]; Table-5b, oral): 625 mg/kg

CC(CN1CCCCCC1)C(=O)c1ccc2c(c1)CCO2.Cl (stereo not shown) [Example 93, 1-(2,3-Dihydro-5-benzofuranyl)-2-methyl-3-(hexahydro-1H-azepin-1-yl)-1-propanone hydrochloride]
responders at 200 mg/kg [1, 11]: 58.3%
Number of surviving animals ([1]; Table-2c, 12 animals used): 7
responders at 50 mg/kg [2, 12]: 100%
responders at 50 mg/kg [2, 13]: 100%
Number of animals exhibiting no tremor [2, 9]: 10
Number of animals exhibiting no tremor [2, 10]: 10
Number of animals exhibiting muscle relaxation ([3]; Table-4d, 75 mg/kg ip): 6
rigidity of the forelimbs and hindlimbs ([4]; 20 mg/kg intravenously): relaxed the rigidity similarly
LD50 at 168 h ([6]; po, Table-5c): 685 mg/kg

CCC(CN1CCCCC1)C(=O)c1ccc2c(c1)OCO2.Cl (stereo not shown) [Example 53, 2-Ethyl-1-(3,4-methylenedioxyphenyl)-3-piperidino-1-propanone hydrochloride]
responders at 200 mg/kg ([1]; po, 1 h, Table-2b, 12 animals used): 83.3%
Number of surviving animals ([1]; Table-2b, 12 animals used): 10
rigidity of the forelimbs and hindlimbs ([4]; 20 mg/kg intravenously): relaxed the rigidity similarly
LD50 at 168 h ([6]; po, Table-5b): 565 mg/kg
